Values after ≈ are worked out from the molar mass of the structure shown.
How the values were obtained:
Fusarium nivale = Fusarium nivale test (rye)/seed treatment (Example 30); format: in vivo, Fusarium nivale (on rye); details: seed treatment, 500 mg/kg of seed, about 3 weeks after sowing, not dressed 12.8
Description: The active compounds are used as dry dressings. These are prepared by extending the particular active compound with a ground mineral to give a finely pulverulent mixture, which ensures uniform distribution on the seed surface. To apply the dressing, the infected seed is shaken with the dressing in a closed glass flask for 3 minutes. 2 batches of 100 grains of the rye are sown 1 cm deep in standard soil and are cultivated in a greenhouse at a temperature of about 10° C. and a relative atmospheric humidity of about 95%, in seedboxes which are exposed to light for 15 hours daily. About 3 weeks after sowing, the plants are evaluated for symptoms of snow mould.

[1] = system: Erysiphe graminis f.sp. hordei; experiment: Erysiphe test (barley)/protective (Example 29); format: in vivo, Erysiphe graminis f.sp. hordei (on barley); details: protective, active compound concentration in spray liquor 0.025 % by weight, 7 days after inoculation
Description: Solvent: 100 parts by weight of dimethylformamide Emulsifier: 0.25 part by weight of alkylaryl polyglycol ether To produce a suitable preparation of active compound, 1 part by weight of active compound is mixed with the stated amounts of solvent and emulsifier, and the concentrate is diluted with water to the desired concentration. To test for protective activity, young plants are sprayed with the preparation of active compound until dew-moist. After the spray coating has dried on, the plants are dusted with spores of Erysiphe graminis f.sp. hordei. The plants are placed in a greenhouse at a temperature of about 20° C. and a relative atmospheric humidity of about 80%, in order to promote the development of powdery mildew pustules. Evaluation is carried out 7 days after the inoculation.

slime organisms = experiment: Action against slime organisms, MIC in Allens nutrient solution (Example 28); format: cell-based; details: 504 h, room temperature, 3 weeks
Description: The compounds according to Examples 3, 5 and 10 are each used, dissolved in a little acetone, in concentrations of 0.1 to 100 mg/liter in Allens nutrient solution (Arch. Mikrobiol. 17, 34-53 (1952)), which contains, in 4 liters of sterile water, 0.2 g of ammonium chloride, 4.0 g of sodium nitrate, 1.0 g of dipotassium hydrogen phosphate, 0.2 g of calcium chloride, 2.05 g of magnesium sulphate, 0.02 g of iron chloride and 1% of caprolactam. Shortly beforehand, the nutrient solution is infected with slime organisms (about 10^6 germs/ml), which have been isolated from spinning water circulations used in the manufacture of polyamide. Nutrient solutions which contain the minimum inhibitory concentration (MIC) or higher concentrations of active compound are still completely clear after culture at room temperature for 3 weeks, that is to say the marked multiplication of the microbes and formation of slime noticeable after 3 to 4 days in nutrient solutions containing no active compound are absent.

Aspergillus niger = experiment: MIC against fungi in beer wort/peptone agar (Example 26); format: cell-based; details: 336 h, 28° C., 2 weeks
Description: (§1) Active compounds according to the invention are added in concentration of 0.1 mg/liter to 5,000 mg/liter to an agar prepared from beer wort and peptone. After storage at 28° C. and 60 to 70% relative atmospheric humidity for 2 weeks, the MIC is determined. The MIC is the lowest concentration of active compound at which no growth at all of the species of microbe used takes place; it is shown in the Table which follows.

Alternaria tenuis = experiment: as above; format: cell-based; details: Alternaria alternata, 336 h, 28° C., 2 weeks
Description: as §1

Sclerophoma pityophila = experiment: as above; format: cell-based; details: Sydowia polyspora, 336 h, 28° C., 2 weeks
Description: as §1

Chaetomium globosum = experiment: as above; format: cell-based; details: 336 h, 28° C., 2 weeks
Description: as §1

Aureobasidium pullulans = experiment: as above; format: cell-based; details: 336 h, 28° C., 2 weeks
Description: as §1

Lentinus tigrinus = experiment: as above; format: cell-based; details: 336 h, 28° C., 2 weeks
Description: as §1

Penicillium glaucum = experiment: as above; format: cell-based; details: 336 h, 28° C., 2 weeks
Description: as §1

Coniophora cerebella = experiment: as above; format: cell-based; details: 336 h, 28° C., 2 weeks
Description: as §1

Polyporus versicolor = experiment: as above; format: cell-based; details: Trametes versicolor, 336 h, 28° C., 2 weeks
Description: as §1

Staphylococcus aureus = experiment: Action against bacteria, MIC in bouillon agar (Example 27); format: cell-based; details: 336 h, 28° C., 2 weeks
Description: The active compounds listed in Table II are added in concentrations of 1 to 5000 ppm to an agar containing bouillon as the nutrient medium. The nutrient medium is then infected with Staphylococcus aureus and the infected medium is kept at 28° C. and 60 to 70% relative atmospheric humidity for 2 weeks. The MIC is the lowest concentration of active compound at which no growth at all of the species of microbe used takes place.

Pyricularia oryzae = format: in vivo, Pyricularia oryzae (on rice); details: rice, protective; active compound concentration 0.025 %; 4 days after inoculation

With CN1C(=O)CN(SC(F)(Cl)Cl)C1=O the “Diseased plants in % of the total plants emerged” value (Fusarium nivale) was 0.0 % of the total plants emerged.
For O=C1C2CC=CCC2C(=O)N1SC(Cl)(Cl)Cl (stereo not drawn) [Captan, reference compound], the “Disease infestation in % of the untreated control” value (shortened to “Disease infestation in %”) [1] was 100 % of the untreated control and the “Diseased plants in % of the total plants emerged” value (Fusarium nivale) was 5.4 % of the total plants emerged.
With CN1C(=O)N(SC(F)(Cl)Cl)C(C)(C)C1=O [Example 3] the MIC (slime organisms) was 3 µg/mL (≈ 10.9 µM), the MIC (Aspergillus niger) was 10 µg/mL (≈ 36.3 µM) and the MIC (Alternaria tenuis) was 1.5 µg/mL (≈ 5.45 µM). The MIC (Sclerophoma pityophila) was 5 µg/mL (≈ 18.2 µM), the MIC (Chaetomium globosum) was 1.5 µg/mL (≈ 5.45 µM) and the MIC (Aureobasidium pullulans) was 1 µg/mL (≈ 3.63 µM). The MIC (Lentinus tigrinus) was 1 µg/mL (≈ 3.63 µM), the MIC (Penicillium glaucum) was 50 µg/mL (≈ 182 µM) and the MIC (Coniophora cerebella) was 1 µg/mL (≈ 3.63 µM). For the same compound, the MIC (Polyporus versicolor) was 7.5 µg/mL (≈ 27.3 µM) and the MIC (Staphylococcus aureus) was 50 µg/mL (≈ 182 µM).
Work on CCCCN1C(=O)CN(SC(F)(Cl)Cl)C1=O [Example 5] yielded an MIC (slime organisms) of 5 µg/mL (≈ 17.3 µM), an MIC (Aspergillus niger) of 50 µg/mL (≈ 173 µM) and an MIC (Alternaria tenuis) of 2 µg/mL (≈ 6.92 µM). The MIC (Sclerophoma pityophila) was 5 µg/mL (≈ 17.3 µM), the MIC (Chaetomium globosum) was 3.5 µg/mL (≈ 12.1 µM) and the MIC (Aureobasidium pullulans) was 2 µg/mL (≈ 6.92 µM). For the same compound, the MIC (Lentinus tigrinus) was 0.75 µg/mL (≈ 2.59 µM), the MIC (Penicillium glaucum) was 100 µg/mL (≈ 346 µM) and the MIC (Coniophora cerebella) was 0.75 µg/mL (≈ 2.59 µM). The MIC (Polyporus versicolor) was 15 µg/mL (≈ 51.9 µM) and the MIC (Staphylococcus aureus) was 100 µg/mL (≈ 346 µM).
CC1(C)C(=O)N(C2CCCCC2)C(=O)N1SC(F)(Cl)Cl [Example 10] was tested, and the MIC (slime organisms) was 100 µg/mL (≈ 291 µM), the MIC (Aspergillus niger) was 20 µg/mL (≈ 58.3 µM) and the MIC (Alternaria tenuis) was 3.5 µg/mL (≈ 10.2 µM). It also gave an MIC (Sclerophoma pityophila) of 5 µg/mL (≈ 14.6 µM), an MIC (Chaetomium globosum) of 1.5 µg/mL (≈ 4.37 µM) and an MIC (Aureobasidium pullulans) of 3.5 µg/mL (≈ 10.2 µM). The MIC (Lentinus tigrinus) was 0.75 µg/mL (≈ 2.18 µM), the MIC (Penicillium glaucum) was 75 µg/mL (≈ 218 µM) and the MIC (Coniophora cerebella) was 0.75 µg/mL (≈ 2.18 µM). The MIC (Polyporus versicolor) was 15 µg/mL (≈ 43.7 µM) and the MIC (Staphylococcus aureus) was 50 µg/mL (≈ 146 µM).
O=C1CN(SC(F)(Cl)Cl)C(=O)N1C1CCCCC1 [drawing 16] was tested, and the “Disease infestation in %” value [1] was 0.0 % of the untreated control.
In the case of O=C1C2CC=CCC2C(=O)N1SC(Cl)(Cl)Cl (stereo not drawn) [drawing 19, reference compound], the “Disease infestation in %” value (Pyricularia oryzae) is reported as 50 % of the untreated control.
In the case of O=C1CN(SC(F)(Cl)Cl)C(=O)N1C1CCCCC1 [drawing 20], the “Disease infestation in %” value (Pyricularia oryzae) is reported as 13 % of the untreated control.

From patent US4547517A, “Microbicidal N-sulphenylated hydantoins” (Bayer Aktiengesellschaft, priority 1983, dated 1985)
